pIC50: −log10 of the molar value.

The source of these data is patent US11802107B2, “Compounds and methods of use” (Signum Biosciences, Inc., priority 2017, dated 2023).

One experiment deals with IL-22. Nature of the experiment: Anti-CD3/CD28+IL-4-induced IL-22 on PBMCs. As to conditions: Homo sapiens, PBMC, anti-CD3/CD28 beads + 50 ng/mL IL-4, 48 hours, ELISA, read-out: TCR/IL-4-PBMCs IL-22 IC50. The format is cell-based. How it is done:
(§1) Cryopreserved human Peripheral Blood Mononuclear cells (PBMCs) from healthy adult donors were obtained from Zen Bio, Inc (Cat No. SER-PBMC-F). Cells were cultured in 96-well plates with lymphocyte media (Cat No. LYMPH-1) and were pre-treated with test materials (≤100 μM) for 2 hours and later co-treated with test materials and anti-CD3/CD28 beads (Thermo-Fisher; Cat No. 11131D) and 50 ng/mL recombinant human IL-4 (R&D Systems® #204-IL) for 48 hours at 37° C. and 5% CO2. After incubation, cell media supernatants were harvested and used to measure cytokine levels (IL-22, IL-31) using ELISA kits (R&D Systems® #DY782, #DY2824). Results were represented as percent of inhibition relative to untreated and anti-CD3/CD28+IL-4 only treated cells. IC50 values were determined by non-linear regression analysis using the four-parameter logistic equation.

The subject of the next experiment is Swiss Webster (ICR) mice. The experiment in a line: TPA-induced skin irritation in vivo model (mouse ear). The note with it: 24 hour. How it is done: Outbred male Swiss Webster (ICR) mice were purchased from Hilltop Lab Animals (Scottdale, PA) and were used between 10 and 12 weeks of age and we followed a similar protocol previously described (Gordon et al., 2008). Mice received 1.2 μg/20 μl TPA dissolved in acetone (10 μl applied both to the dorsal and ventral surfaces of the mouse ear using a solvent pipette) to each ear to induce acute irritation (6 per group). Test Materials were co-treated with TPA or applied 5 minutes after TPA dose, at various concentrations (0.6 to 800 μg/20 μl) in ethanol. After 24 hour treatment, edema was measured by ear thickness.

The subject of a further experiment is IL-31. Nature of the experiment: Anti-CD3/CD28+IL-4-induced IL-31 on PBMCs. It counts as cell-based. The note with it: Homo sapiens, PBMC, anti-CD3/CD28 beads + 50 ng/mL IL-4, 48 hours, ELISA, read-out: TCR/IL-4-PBMCs IL-31 IC50. On the procedure: as §1
A general note: ELISA stands for enzyme-linked immunosorbent assay.

In a further experiment the test system is LPS-induced cytokines. Nature of the experiment: LPS-induced cytokines on PBMCs. It counts as cell-based, human. As to conditions: LPS instead of anti-CD3/CD28 beads. On the procedure: as §1, with “at 1:0.4 PBMC:bead ratio” for “and 50 ng/mL recombinant human IL-4 (R&D Systems® #204-IL)”, “24” for “48”, “(IL-4, IL-5, IL-10)” for “(IL-22, IL-31)”, “(BD Biosciences® #555194, #555157; R&D” for “(R&D”, “#DY317).” for “#DY782, #DY2824).”, “anti-CD3/CD28 beads-only” for “anti-CD3/CD28+IL-4 only”
By a similar method, but instead of anti-CD3/CD28 beads (Thermo-Fisher; Cat No. 11131D), compounds A, C, T and E were treated with LPS (Sigma Aldrich, Cat. No. LF4321) to measure inhibition of LPS-induced cytokines, and compounds C and T were treated with PHA-L (Sigma Aldrich, Cat No. 11249738001) to measure inhibition of PHA-induced cytokines.

In the next experiment the test system is IL-1b. Nature of the experiment: P. acnes-induced IL-1b protein on human PBMCs (ELISA). The format is cell-based. The note with it: PBMC, PBMCs + live P. acnes 1:1, test material 30 PM, 24 hours. On the procedure:
Cryopreserved human Peripheral Blood Mononuclear cells (PBMCs) from healthy adult donors were obtained from Zen Bio, Inc (Cat No. SER-PBMC-F). Cells were cultured in 12-well plates with lymphocyte media (Cat No. LYMPH-1) and incubated with test materials ([…]) and live P. acnes (ATCC® 6919TM) at 1:1 PBMC: P. acnes bacteria ratio for 24 hours at 37° C. and 5% CO2. After incubation, cell media supernatants were harvested and used to measure pro-inflammatory cytokine levels (IL-8, TNF-α, IL-1b, IL-17) using ELISA kits (BD Biosciences® #557966, #555212, #555244; R&D Systems® #DY317). Total RNA was extracted from cells using the RNAqueous® kit (Ambion®; Cat No. 1912) and cDNA was obtained using the High Capacity RNA-to-cDNA kit (Applied Biosystems®; Cat No. 4387406). Quantitative PCR (qPCR) was performed using the TaqMan® Fast Advanced Master Mix (Applied Biosystems®; Cat No. 4444556) and specific TaqMan®-probes human gene primers CXCL8 (IL-8), IL1B (IL-1b), TNF (TNF-α), IL17A (IL-17A) and GAPDH to calculate the relative gene fold expression change per treatment. Gene expression analysis was performed using the comparative Ct method (also known as the 2-[delta][delta]Ct) approach by comparing the Ct values of P. acnes-only treated cells with the untreated samples and normalized to GAPDH gene expression as endogenous housekeeping gene.

The test system of the next experiment is DEFB103 (hBD3). The experiment in a line: NHEK antimicrobial peptide gene expression, hBD3. It counts as cell-based, human. As to conditions: 10 μM, 24 hours, qPCR, normalized to GAPDH. How it is done:
Normal human epidermal keratinocytes (NHEKs) from neonatal donors were obtained from Thermo-Fisher (Cat No. C-001-5C). Cells were cultured in 6-well plates for 24 hours before treatments with EpiLife media (Cat No. MEPI500CA) supplemented with keratinocytes growth supplement (Cat No. 50015). On Day 2, media was removed and incubated with test materials (10 μM) for 24 hours at 37° C. and 5% CO2. On Day 3, total RNA was extracted from cells using the RNAqueous® kit (Ambion®; Cat No. 1912) and cDNA was obtained using the High Capacity RNA-to-cDNA kit (Applied Biosystems®; Cat No. 4387406). Quantitative PCR (qPCR) was performed using the TaqMan® Fast Advanced Master Mix (Applied Biosystems®; Cat No. 4444556) and specific TaqMan®-probes human gene primers DEFB4B (hBD2), DEFB103 (hBD3), HCAP18 and GAPDH to calculate the relative gene fold expression change per treatment. Gene expression analysis was performed using the comparative Ct method (also known as the 2-[delta][delta]Ct) approach by comparing the Ct values of the treated samples with the untreated samples and normalized to GAPDH gene expression as endogenous housekeeping gene. Results were represented as fold-expression/untreated cells.
For orientation: Quantitative PCR measures a nucleic acid by following its amplification.

The mark [1] stands for this setting: topical @ 1% w/v, ear thickness.

On to `N#Cc1ccc(Oc2ccc3c(c2)COB3O)cc1` [AN2728, reference compound], for which the pIC50 in the experiment with IL-22 was 5.70; in the experiment on IL-31 it was 11.10. The molecule further had an Edema (% inhibition) in the experiment with Swiss Webster (ICR) mice (topical, AN2728 at 2%) of 43%.
What is called inhibition is the drop in the measured response relative to a control, in per cent. Consider `C/C(=C\CSCC(NC(=O)NCC(=O)O)C(=O)O)CCCC(C)CCCC(C)CCCC(C)C` (stereo not shown) [A], for which, in the experiment with LPS-induced cytokines, the “inhibition of LPS-induced cytokines” value is listed as “did not show significant inhibition”. Moreover, the Edema (% inhibition) with Swiss Webster (ICR) mice (setting [1]) amounted to 50%. Besides, in the experiment with IL-1b, the inhibition at 30 pM worked out at 38%.
Take `C/C(=C\CSC[C@H](NC(=O)N(C)CC(=O)O)C(=O)O)CCCC(C)CCCC(C)CCCC(C)C` (stereo partly drawn) [Compound C, (2R)-2-{[(carboxymethyl)(methyl)carbamoyl]amino}-3-{[(2E)-3,7,11,15-tetramethylhexadec-2-en-1-yl]sulfanyl}propanoic acid]: the pIC50 in the experiment with IL-22 was below 4.60. Further, in the experiment on LPS-induced cytokines, the “inhibition of LPS-induced cytokines” value is “did not show significant inhibition”. In the experiment with Swiss Webster (ICR) mice (topical @ 1% w/v), this molecule gave an MPO (% inhibition) of 88%. In the experiment on Swiss Webster (ICR) mice (setting [1]), this molecule yielded an Edema (% inhibition) of 64%. Moreover, the hBD3 gene expression in the experiment with DEFB103 (hBD3) is 9.5 Fold-expression/untreated cells. Further, in the experiment with IL-1b, the inhibition at 30 pM amounted to 36%.
On to `C/C(=C\CSC[C@H](NC(=O)N1CCC[C@H]1C(=O)O)C(=O)O)CCCC(C)CCCC(C)CCCC(C)C` (stereo partly shown) [Compound E], for which the pIC50 was below 4.60 in the experiment with IL-22 and 9.00 in the experiment with IL-31. Further, the “inhibition of LPS-induced cytokines” value in the experiment on LPS-induced cytokines was “did not show significant inhibition”. The hBD3 gene expression with DEFB103 (hBD3) is given as 2.9 Fold-expression/untreated cells. In addition, the inhibition at 30 pM in the experiment on IL-1b amounted to 82%.
With `C/C(=C\CSCC(NC(=O)N(CC(=O)O)CC(=O)O)C(=O)O)CCCC(C)CCCC(C)CCCC(C)C` (stereo not shown) [Compound G], the pIC50 in the experiment with IL-22 is below 4.60. For the same molecule, in the experiment on DEFB103 (hBD3), the hBD3 gene expression is 4.7 Fold-expression/untreated cells. For the same molecule, the inhibition at 30 pM in the experiment with IL-1b is 91%.
Take `C/C(=C\CSC[C@H](NC(=O)COCC(=O)O)C(=O)O)CCCC(C)CCCC(C)CCCC(C)C` (stereo partly shown) [Compound T]: the pIC50 in the experiment with IL-22 is below 4.60; with IL-31 it was 9.00. The “inhibition of LPS-induced cytokines” value in the experiment with LPS-induced cytokines is listed as “did not show significant inhibition”. The same molecule gave an MPO (% inhibition) in the experiment with Swiss Webster (ICR) mice (topical @ 1% w/v) of 83%. Also, in the experiment on Swiss Webster (ICR) mice (setting [1]), the Edema (% inhibition) worked out at 61%.
